According to US9745583B2, “Liposome for topical administration and application thereof” (DELTA-FLY PHARMA, INC., priority 2013, dated 2017):

What was measured:
[1] = system: MSTO-211H-Luc cells; assay: Tumor growth inhibition by intrathoracic TS-shRNA lipoplex in orthotopic mouse models of malignant pleural mesothelioma (Example 8); type: in vivo; conditions: compared with control; IVIS 21 days after implantation; lipoplex 20 μg shRNA intrathoracic x6; PMX 25 mg/kg i.p. x10
Description: Orthotopic implantation mouse models of malignant pleural mesothelioma using the MSTO-211H-Luc cells were prepared by the method described in Example 3, and mice in which implanted cells had been sufficiently fixed 7 days after implantation were subjected to in vivo experiment.
The TS-shRNA lipoplex or NS-shRNA lipoplex was directly administered into the thoracic cavity of a mouse carrying MSTO-211H-Luc cells every other day from 7 days to 17 days after the tumor implantation, and administration was carried out 6 times in total. A dose was 20 μg of shRNA/100 μl. […]
As described in Example 5, carcinostatic activity (i.e., cell growth inhibitory activity) was evaluated by implanting MSTO-211H-Luc cells, administering 100 μl of a D-luciferin potassium salt solution (7.5 mg/ml) intraperitoneally under anesthesia with isoflurane 21 days after implantation, and evaluating the bioluminescence levels depending on activity of the MSTO-211H-Luc cells that had grown in the thoracic cavity using IVIS (Xenogen, Alameda, Calif., U.S.A.).

[2] = system: TS gene; assay: TS gene expression in collected tumor cells, quantitative RT-PCR (Example 9); type: in vivo, human; conditions: tumor cells collected 21 days after implantation; compared with control; GAPDH internal standard
Description: Mice of the groups subjected to the treatment in the same manner as in Example 8 were subjected to evaluation via IVIS 21 days after the implantation of the MSTO-211H-Luc cells, mice were sacrificed, tumor cells were collected from the thoracic cavity, and the inhibition of TS gene expression in the collected tumor cells was evaluated via quantitative RT-PCR.
RNA was extracted from tumor cells using the RNaqueous-micro kit (Ambion, Austin, Tex., U.S.A.) in accordance with the method recommended by the manufacturer. Reverse transcription of RNA into cDNA was carried out with the addition of Oligo (dT)20, dNTP, RNase inhibitor, and ReverTra Ace (Toyobo, Osaka, Japan) to RNA. Real-time PCR was carried out using the StepOnePlus real-time PCR system (Applied Biosystems, CA, U.S.A.), the reversely-transcribed cDNA as the template, and FastStart TaqMan Probe Master (ROX) and Universal ProbeLibrary (Roche Diagnostics GmbH, Manheim, Germany) as reagents, in accordance with the method recommended by the manufacturer. GAPDH was used as the internal standard.

[3] = system: MSTO-211H-Luc cells; assay: Tumor growth inhibition by intrathoracic TS-lipoplex and TS-preplex in orthotopic models (Example 11); type: in vivo, mouse; conditions: IVIS 18 days after implantation; 20 μg shRNA intrathoracic x5; PMX 25 mg/kg i.p. x10
Description: Orthotopic implantation models of malignant pleural mesothelioma using the MSTO-211H-Luc cells were prepared by the method described in Example 4, and the mice 4 days after implantation were subjected to the in vivo experiment.
The TS-lipoplex or TS-preplex was administered directly into the thoracic cavity 4, 7, 10, 13, and 16 days after the tumor implantation, so that 20 μg (50 μl) of shRNA would be administered.
When an existing chemotherapeutic agent (Alimta; pemetrexed sodium hydrate (PMX), Eli Lilly) was used in combination, a dose of 25 mg/kg was intraperitoneally administered every day from 4 days to 8 days after the tumor implantation, the same amount of the agent was intraperitoneally administered after an interval of 2 days every day from 11 days to 15 days after the tumor implantation, and administration was carried out 10 times in total.
Two days after the final administration of the TS-lipoplex or TS-preplex (i.e., 18 days after the tumor implantation), 100 μl of a D-luciferin potassium salt solution (7.5 mg/ml) was administered intraperitoneally under anesthesia with isoflurane, and the bioluminescence levels depending on luciferase activity in the MSTO-211H-Luc cells that had grown in the thoracic cavity were evaluated using IVIS (Xenogen, Alameda, Calif., U.S.A.).

[4] = system: human malignant pleural mesothelioma cells (MSTO-211H); assay: MTT assay, cell growth after shRNA transfection with or without PMX; type: cell-based; conditions: shRNA 5 or 10 nM with Lf RNAi MAX; in the presence of PMX 0.01 μg/ml; 0-96 hours
Description: This experiment was carried out on a 96-well plate scale. Transfection was carried out using Lipofectamine® RNAi MAX (hereafter referred to as “Lf RNAi MAX”), which is a cationic liposome, in accordance with the manufacturer's instructions.
shRNA (300 pmol of TS-shRNA or NS-shRNA) and 15 μl of Lf RNAi MAX were separately diluted with OptiMEM to prepare solutions (500 n1 each), the resulting solutions were mixed with each other, and the mixture was allowed to stand at room temperature for 10 to 20 minutes to form a complex (i.e., a lipoplex). A suspension of human malignant pleural mesothelioma cells (MSTO-211H) (2,000 cells/100 n1) was added to wells, 50 μl of lipoplex was added thereto 24 hours thereafter, and the final total volume was adjusted to 150 μl (the final shRNA concentration in the wells was adjusted to 5 nM or 10 nM). The medium was removed 24 hours after the initiation of transfection, and 200 μl of a fresh medium containing or not containing an existing cancer chemotherapeutic agent (“Alimta,” pemetrexed sodium hydrate, PMX, Eli Lilly) at 0.01 μg/ml was added thereto. The medium was removed 0, 24, 48, 72, and 96 hours after the addition of the fresh medium. […]
After the completion of incubation, acidic isopropanol (150 μl) was added to each well. […] Absorbance was determined at a wavelength of 570 nm using a plate reader. […]

Molecule | tumor growth inhibitory effects [1] | TS gene inhibitory effects (TS mRNA) [2] | tumor growth inhibitory effects [3] | growth of MSTO-211H cells (cell growth rate, MTT) [4]
Nc1nc2[nH]cc(CCc3ccc(C(=O)N[C@@H](CCC(=O)O)C(=O)O)cc3)c2c(=O)[nH]1 [PMX, pemetrexed sodium hydrate] | about 50% | about 25% | insignificant | –
TS-shRNA: TS-targeting shRNA, SEQ ID NO: 8 (GUAACACCAUCGAUCAUGAUAGUGCUCCUGGUUGUCAUGAUCGAUGGUGUUACUU; siRNA; shRNA hairpin, further chemistry not given here) | – | – | – | inhibited the growth of MSTO-211H cells to a significant extent
